Tested on: hypertensive subjects
Experiment: 24-hour ambulatory blood pressure monitoring (ABPM), incl. nighttime dip
Type: in vivo, human
Procedure: Ambulatory blood pressure monitoring was accomplished with an ambulatory blood pressure monitoring device that consists of a blood pressure cuff worn on a subject's arm attached to a small recording device that is typically attached to the subject's belt or waistband.
The ABPM device is worn for 24 hours. Throughout that period, the device records the subject's blood pressure at regular intervals, during the subject's routine daily activities and while they are sleeping. The ABPM thus provides a complete record of the subject's blood pressure over a 24-hour period.
24-hour ABPM was measured in the clinic at baseline and Study Week 7. If, for any reason, the ABPM procedure was deemed a failure at the end of Study Week 7, it may have been repeated at Study Week 8 and therefore no imputation was employed regardless of use of rescue medications. Additionally, ABPM was also collected at the end of Study Week 4 in Part 2. If a repeat test was performed, it supersedes the original test results for that visit.
Specific derived variables based on ABPM measurements include mean 24-hour, mean Daytime, and mean Nighttime of SBP, DBP, and heart rate.
Change from baseline to Week 7 in 24-hour mean SBP (and DBP) based on ABPM will be analyzed using an ANCOVA with a term for treatment group and a baseline mean 24-hour value as a covariate.
The nighttime dip is defined as
100%×(mean daytime SBP−mean nighttime SBP)/mean daytime SBP
It is expressed as a percentage and is summarized by treatment group and visit using descriptive statistics. In addition, the number and percentage of subjects with nighttime dip in each of the dipper categories (Bloomfield & Park, 2015) is presented by treatment group and visit. The categories are: • (a) <10% • (b) 10-20% inclusive • (c) >20%
Secondary endpoints of this study were: • (a) Change in 24-hour ambulatory blood pressure monitoring (ABPM) parameters (systolic and diastolic) from baseline to the end of Study Week 7. • (b) Change in office-measured SBP from baseline to the end of Study Weeks 1, 2, 3, 4, 5, 6, and 7. • (c) Change in office-measured diastolic blood pressure (DBP) from baseline to the end of Study Weeks 1, 2, 3, 4, 5, 6, 7, and 8. • (d) Proportion of subjects who achieve office-measured BP of ≤130/80 mm Hg by the end of Study Week 8.

[1] = 50 mg QD, End of Treatment, Part 1, FAS post-hoc
[2] = 100 mg QD Part 2, End of Treatment, FAS post-hoc
[3] = 100 mg QD, End of Treatment, Part 1, FAS post-hoc

For CC(=O)N[C@H]1CC[C@H](NC(=O)CN2CCN(c3nncc(-c4ccc(C)cc4)n3)CC2)CC1 [Compound A HBr], the “LSM Δ with Placebo, 24-hr Mean MAP (ABPM, ANCOVA)” value [1] was −3.48 mmHg, the “LSM Δ with Placebo, 24-hr SBP (ABPM, ANCOVA)” value [1] was −3.85 mmHg and the “LSM Δ with Placebo, Daytime Mean DBP (ABPM, ANCOVA)” value [1] was −4.18 mmHg. The “LSM Δ with Placebo, Daytime Mean SBP (ABPM, ANCOVA)” value [1] was −6.85 mmHg, the “LSM Δ with Placebo, Mean Central DBP (ABPM, ANCOVA)” value [1] was −2.58 mmHg and the “LSM Δ with Placebo, Mean Central Mean BP (ABPM, ANCOVA)” value [1] was −4.11 mmHg. For the same compound, the “LSM Δ with Placebo, Mean Central SBP (ABPM, ANCOVA)” value [1] was −5.46 mmHg, the “LSM Δ with Placebo, Nighttime Mean DBP (ABPM, ANCOVA)” value [1] was 0.15 mmHg and the “LSM Δ with Placebo, Nighttime Mean SBP (ABPM, ANCOVA)” value [1] was 2.37 mmHg. The “24-hr Mean DBP (ABPM), Mean (SD)” value (50 mg QD, EoT, Part 1, FAS) was 77.75 (9.33) mmHg, the “24-hr Mean MAP (ABPM), Mean (SD)” value (50 mg QD, EoT, Part 1, FAS) was 104.55 (11.74) mmHg and the “24-hr Mean SBP (ABPM), Mean (SD)” value (50 mg QD, EoT, Part 1, FAS) was 131.36 (15.58) mmHg. The “Daytime Mean DBP (ABPM), Mean (SD)” value (50 mg QD, EoT, Part 1, FAS) was 79.50 (9.08) mmHg, the “Daytime Mean SBP (ABPM), Mean (SD)” value (50 mg QD, EoT, Part 1, FAS) was 132.32 (14.36) mmHg and the “Nighttime Mean DBP (ABPM), Mean (SD)” value (50 mg QD, EoT, Part 1, FAS) was 74.25 (13.08) mmHg. The “Nighttime Mean SBP (ABPM), Mean (SD)” value (50 mg QD, EoT, Part 1, FAS) was 129.54 (21.68) mmHg, the “Subjects with nighttime dip 10-20% in 24-hour systolic ABPM” value (50 mg QD, EoT, Part 1, FAS) was 6 (21.4) n (%) and the “Subjects with nighttime dip <10% in 24-hour systolic ABPM” value (50 mg QD, EoT, Part 1, FAS) was 22 (78.6) n (%). The “Subjects with nighttime dip >20% in 24-hour systolic ABPM” value (50 mg QD, EoT, Part 1, FAS) was 0 n (%), the “24-hr Mean DBP (ABPM) CFB to EoT, Mean (SD)” value (50 mg QD, Part 1, FAS) was −3.00 (8.52) mmHg and the “24-hr Mean MAP (ABPM) CFB to EoT, Mean (SD)” value (50 mg QD, Part 1, FAS) was −2.39 (11.80) mmHg. The “24-hr Mean SBP (ABPM) CFB to EoT, Mean (SD)” value (50 mg QD, Part 1, FAS) was −1.79 (15.82) mmHg, the “Daytime Mean DBP (ABPM) CFB to EoT, Mean (SD)” value (50 mg QD, Part 1, FAS) was −4.11 (6.81) mmHg and the “Daytime Mean SBP (ABPM) CFB to EoT, Mean (SD)” value (50 mg QD, Part 1, FAS) was −4.54 (13.59) mmHg. The “Nighttime Mean DBP (ABPM) CFB to EoT, Mean (SD)” value (50 mg QD, Part 1, FAS) was 0.00 (12.34) mmHg, the “Nighttime Mean SBP (ABPM) CFB to EoT, Mean (SD)” value (50 mg QD, Part 1, FAS) was 2.44 (22.25) mmHg and the “LSM Δ with 100 mg QD Part 1, 24-hr Mean AP (ABPM, ANCOVA)” value [2] was 3.33 mmHg. For the same compound, the “LSM Δ with 100 mg QD Part 1, 24-hr Mean DBP (ABPM, ANCOVA)” value [2] was 4.26 mmHg, the “LSM Δ with 100 mg QD Part 1, 24-hr Mean SBP (ABPM, ANCOVA)” value [2] was 4.13 mmHg and the “LSM Δ with 100 mg QD Part 1, Daytime Mean DBP (ABPM, ANCOVA)” value [2] was 3.92 mmHg. For the same compound, the “LSM Δ with 100 mg QD Part 1, Daytime Mean SBP (ABPM, ANCOVA)” value [2] was 1.64 mmHg, the “LSM Δ with 100 mg QD Part 1, Mean Central DBP (ABPM, ANCOVA)” value [2] was 4.53 mmHg and the “LSM Δ with 100 mg QD Part 1, Mean Central Mean BP (ABPM, ANCOVA)” value [2] was 3.98 mmHg. The “LSM Δ with 100 mg QD Part 1, Mean Central SBP (ABPM, ANCOVA)” value [2] was 4.68 mmHg, the “LSM Δ with 100 mg QD Part 1, Nighttime Mean DBP (ABPM, ANCOVA)” value [2] was 5.04 mmHg and the “LSM Δ with 100 mg QD Part 1, Nighttime Mean SBP (ABPM, ANCOVA)” value [2] was 8.91 mmHg. For the same compound, the “LSM Δ with Placebo, 24-hr DBP (ABPM, ANCOVA)” value [3] was −5.23 mmHg, the “LSM Δ with Placebo, 24-hr Mean MAP (ABPM, ANCOVA)” value [3] was −5.45 mmHg and the “LSM Δ with Placebo, 24-hr SBP (ABPM, ANCOVA)” value [3] was −5.33 mmHg. The “LSM Δ with Placebo, Daytime Mean DBP (ABPM, ANCOVA)” value [3] was −4.98 mmHg, the “LSM Δ with Placebo, Daytime Mean SBP (ABPM, ANCOVA)” value [3] was −4.12 mmHg and the “LSM Δ with Placebo, Mean Central DBP (ABPM, ANCOVA)” value [3] was −7.01 mmHg. The “LSM Δ with Placebo, Mean Central Mean BP (ABPM, ANCOVA)” value [3] was −7.77 mmHg, the “LSM Δ with Placebo, Mean Central SBP (ABPM, ANCOVA)” value [3] was −7.79 mmHg and the “LSM Δ with Placebo, Nighttime Mean DBP (ABPM, ANCOVA)” value [3] was −5.68 mmHg. The “LSM Δ with Placebo, Nighttime Mean SBP (ABPM, ANCOVA)” value [3] was −7.36 mmHg, the “24-hr Mean DBP (ABPM), Mean (SD)” value (100 mg QD, EoT, Part 1, FAS) was 75.92 (8.42) mmHg and the “24-hr Mean MAP (ABPM), Mean (SD)” value (100 mg QD, EoT, Part 1, FAS) was 105.48 (8.26) mmHg. The “24-hr Mean SBP (ABPM), Mean (SD)” value (100 mg QD, EoT, Part 1, FAS) was 135.04 (11.25) mmHg, the “Daytime Mean DBP (ABPM), Mean (SD)” value (100 mg QD, EoT, Part 1, FAS) was 78.79 (9.44) mmHg and the “Daytime Mean SBP (ABPM), Mean (SD)” value (100 mg QD, EoT, Part 1, FAS) was 139.42 (11.65) mmHg. The “Nighttime Mean DBP (ABPM), Mean (SD)” value (100 mg QD, EoT, Part 1, FAS) was 69.00 (9.04) mmHg, the “Nighttime Mean SBP (ABPM), Mean (SD)” value (100 mg QD, EoT, Part 1, FAS) was 124.50 (14.93) mmHg and the “Subjects with nighttime dip 10-20% in 24-hour systolic ABPM” value (100 mg QD, EoT, Part 1, FAS) was 11 (45.8) n (%). For the same compound, the “Subjects with nighttime dip <10% in 24-hour systolic ABPM” value (100 mg QD, EoT, Part 1, FAS) was 11 (45.8) n (%), the “Subjects with nighttime dip >20% in 24-hour systolic ABPM” value (100 mg QD, EoT, Part 1, FAS) was 2 (8.3) n (%) and the “24-hr Mean DBP (ABPM), Mean” value (100 mg QD, EoT, Part 2, FAS) was 77.07 mmHg. For the same compound, the “24-hr Mean MAP (ABPM), Mean” value (100 mg QD, EoT, Part 2, FAS) was 104.83 mmHg, the “24-hr Mean SBP (ABPM), Mean” value (100 mg QD, EoT, Part 2, FAS) was 132.59 mmHg and the “Daytime Mean DBP (ABPM), Mean” value (100 mg QD, EoT, Part 2, FAS) was 79.41 mmHg. For the same compound, the “Daytime Mean SBP (ABPM), Mean” value (100 mg QD, EoT, Part 2, FAS) was 135.22 mmHg, the “Nighttime Mean DBP (ABPM), Mean” value (100 mg QD, EoT, Part 2, FAS) was 71.85 mmHg and the “Nighttime Mean SBP (ABPM), Mean” value (100 mg QD, EoT, Part 2, FAS) was 126.04 mmHg. For the same compound, the “24-hr Mean DBP (ABPM) CFB to EoT, Mean (SD)” value (100 mg QD, Part 1, FAS) was −5.92 (8.44) mmHg, the “24-hr Mean MAP (ABPM) CFB to EoT, Mean (SD)” value (100 mg QD, Part 1, FAS) was −7.40 (10.04) mmHg and the “24-hr Mean SBP (ABPM) CFB to EoT, Mean (SD)” value (100 mg QD, Part 1, FAS) was −8.88 (11.90) mmHg. The “Daytime Mean DBP (ABPM) CFB to EoT, Mean (SD)” value (100 mg QD, Part 1, FAS) was −4.96 (8.74) mmHg, the “Daytime Mean SBP (ABPM) CFB to EoT, Mean (SD)” value (100 mg QD, Part 1, FAS) was −7.08 (12.60) mmHg and the “Nighttime Mean DBP (ABPM) CFB to EoT, Mean (SD)” value (100 mg QD, Part 1, FAS) was −6.57 (9.97) mmHg. For the same compound, the “Nighttime Mean SBP (ABPM) CFB to EoT, Mean (SD)” value (100 mg QD, Part 1, FAS) was −11.48 (13.87) mmHg, the “24-hr Mean DBP (ABPM) CFB to EoT, Mean” value (100 mg QD, Part 2, FAS) was 1.33 mmHg and the “24-hr Mean MAP (ABPM) CFB to EoT, Mean” value (100 mg QD, Part 2, FAS) was 1.81 mmHg. The “24-hr Mean SBP (ABPM) CFB to EoT, Mean” value (100 mg QD, Part 2, FAS) was 2.30 mmHg, the “Daytime Mean DBP (ABPM) CFB to EoT, Mean” value (100 mg QD, Part 2, FAS) was 1.67 mmHg and the “Daytime Mean SBP (ABPM) CFB to EoT, Mean” value (100 mg QD, Part 2, FAS) was 2.41 mmHg. For the same compound, the “Nighttime Mean DBP (ABPM) CFB to EoT, Mean” value (100 mg QD, Part 2, FAS) was 1.04 mmHg, the “Nighttime Mean SBP (ABPM) CFB to EoT, Mean” value (100 mg QD, Part 2, FAS) was 1.52 mmHg and the “Change in BP, ABPM (night) BPsys, Mean (sem)” value (100 mg QD, Week 8, FAS) was −11.5 (2.5) mmHg. For the same compound, the “Proportion of Subjects with Nighttime Dip in 24-hour Systolic Ambulatory Blood Pressure 10-20%” value (Part 2, 100 mg QD, EoT) was “(33.3) %”, the “Proportion of Subjects with Nighttime Dip in 24-hour Systolic Ambulatory Blood Pressure <10%” value (Part 2, 100 mg QD, EoT) was “(66.7) %” and the “Proportion of Subjects with Nighttime Dip in 24-hour Systolic Ambulatory Blood Pressure 10-20%” value (Part 2, 100 mg QD, Week 4) was “(24.0) %”. For the same compound, the “Proportion of Subjects with Nighttime Dip in 24-hour Systolic Ambulatory Blood Pressure <10%” value (Part 2, 100 mg QD, Week 4) was “(72.0) %” and the “Proportion of Subjects with Nighttime Dip in 24-hour Systolic Ambulatory Blood Pressure >20%” value (Part 2, 100 mg QD, Week 4) was “(4.0) %”.

— patent US20260053811A1, “METHODS OF TREATING HYPERTENSION IN OBESE SUBJECTS” (Mineralys Therapeutics, Inc., priority 2022, published 2026)
